ChEMBL document CHEMBL1151395, “Cytotoxic Flavones From Centaurea urvillei” (J Nat Prod, 1982)
Calls of active or inactive are those of the source. The rule behind the calls is not given here.

Tested on: Fibroblast
Assay: Cytotoxicity against L-strain mouse fibroblasts at 0.05 mg/ml
Format: functional, cell-based

COc1c(O)cc2oc(-c3ccc(O)cc3)cc(=O)c2c1O
Activity: Active
